The data set has as its system cortical neurons. Description: 2% Low Serum Assay, neuronal viability by MTT method. It is filed as cell-based, chicken. Conditions: for viability, mean optical density: addition at 1DIV, n=8; for viability, mean optical density / maximum neuronal viability (% of untreated control) / viability, mean in % (control is 100%): 8 days; for maximum neuronal viability (% of untreated control) / viability, mean in % (control is 100%): Lohman or Hisex Brown, chicken. How it is done: Lohman or Hisex Brown chicken one-day-old fertilized eggs were obtained and stored in a lab under appropriate conditions of 12° C. and 80% humidity. At embryonic day 0 eggs were transferred into a breeding incubatore and stored under permanent turning until embryonic day 9 at 37.8° C. and 55% humidity. For isolation of neurons 4 to 6 chicken embryos were used per experiment. Neurons were plated out and nerve cells maintained in a nutrition medium at 37° C., 97% humidity, and 5% CO2.
Test Item (T.I.) and Reference Item (R.I.) were administered at the start of the experiments for 8 days. Neurons were maintained in the same medium without change or addition of media until the end of the experiments. During the whole culture period of 8 days cells stay in an incubator at 37° C., 97% humidity, and 5% CO2.
From T.I.1, L-Ergothioneine a 128 mM solution was prepared in medium and directly added to the cells at the start of the experiments for a total of 8 days. […] The pellet was discarded and only from the supernatant 1.25 μl up to 160 μl/ml medium was administered. R.I.2. the neurotrophic standard NTS is a ready to use injection solution and was applied in concentrations from 1.25 μl up ro 160 μl/ml medium. The stock-solution for R.I.3, Trolox, was made in a concentration of 2 mM in PBS and the appropriate concentrations added to the cells at day 1.
To the isolated nerve cell T.I.1 was added in a dose range of 0.5, 1, 2, 4, 8, 16, 32, 64 mM. The supernatant of R.I.1 and the ready to use injection solution of R.I.2 were applied in the concentration 1.25, 2.5, 5, 10, 20, 40, 80, 160 μl/ml medium. R.I.3 was tested in the concentrations of 1, 2, 4, 8, 16, 31.25, 62.5, 125 μM. Experiments were performed at two different days, whereby on each day two identical microplates were prepared with two to four wells per T.I. or R.I. (n=8). In this 2% cell stress assay substances were administered at start of the experiment (day 1 in vitro) for the whole experimental period that means for eight days in vitro.
Neuronal viability of cultures was determined with the MTT-assay using a plate-reader (570 nm) as described in SOP MET009. The MTT-assay is a sensitive assay measuring the mitochondrial dehydrogenase activity in viable cells only. It is performed according to the method described by Mosmann, J. Immunol. Meth., 1983, 55-63. This assay is based on the reduction of yellow MTT (3-(4,5-dimethylthiazol-2-yl)-2,5,diphenyl tetrazolium bromide), to dark blue formazan crystals by mitochondrial dehydrogenases (succinate dehydrogenase). Since this reaction is catalyzed in living cells only the assay can be used for the quantification of cell viability.
For the determination of cell viability MTT solution was added to each well in a final concentration of 0.5 mg/ml. After 2 hours the MTT containing medium was aspired. Cells were lysed with 3% SDS, formazan crystals dissolved in isopropanol/HCI. To estimate optical density a plate reader (Anthos HT II) was used at wavelength 570 nm. Neuronal viability is expressed as optical densities (ODs).
In general terms: Formazan colour is commonly taken as a measure of viable cells.

[1] abbreviates: Gallus gallus, Cortical neurone, 192 h, read-out: viability, mean in % (control is 100%).

For orientation: viability means a read-out of living cells in per cent, often relative to untreated cells.

In the case of `COc1c(O)cc2oc3cc(O)c(CC=C(C)C)c(O)c3c(=O)c2c1CC=C(C)C` [Mangostin], the “maximum neuronal viability (% of untreated control)” value is reported as 155%. Under “1.25 μl/ml”, the “viability, mean optical density” value was 0.051 OD and the “viability, mean in % (control is 100%)” value came out at 93.86%. Besides, where the note is “2.5 μl/ml”, the “viability, mean optical density” value is 0.052 OD and the “viability, mean in % (control is 100%)” value was determined as 95.97%. Also, for the setting “5 μl/ml”, the “viability, mean optical density” value was 0.053 OD and the “viability, mean in % (control is 100%)” value amounted to 98.32%. In addition, where the note is “10 μl/ml”, the “viability, mean optical density” value was found to be 0.076 OD and the “viability, mean in % (control is 100%)” value turned out to be 142.18%. Further, where the note is “20 μl/ml”, the “viability, mean optical density” value was 0.064 OD and the “viability, mean in % (control is 100%)” value is listed as 155.61%. The “viability, mean optical density” value (40 μl/ml) is listed as 0.057 OD. Also, for the setting “80 μl/ml”, the “viability, mean optical density” value turned out to be 0.059 OD and the “viability, mean in % (control is 100%)” value was 109.66%. Where the note is “160 μl/ml”, the “viability, mean optical density” value was 0.065 OD and the “viability, mean in % (control is 100%)” value was determined as 120.33%.
For `Cc1c(C)c2c(c(C)c1O)CCC(C)(C(=O)O)O2` (stereo not drawn) [Trolox, 6-Hydroxy-2,5,7,8-tetramethylchroman2-carboxylic acid], the “maximum neuronal viability (% of untreated control)” value stood at 620%. Besides, the “viability, mean optical density” value (1 μM) was 0.052 OD. Also, for the setting “2 μM”, the “viability, mean optical density” value stood at 0.056 OD. Also, the “viability, mean optical density” value (4 μM) turned out to be 0.058 OD. For the same molecule, the “viability, mean optical density” value (8 μM) turned out to be 0.076 OD. For the same molecule, the “viability, mean optical density” value (16 μM) was 0.180 OD. Under “31.25 μM”, the “viability, mean optical density” value amounted to 0.297 OD. The “viability, mean optical density” value (62.5 μM) came out at 0.338 OD. The “viability, mean optical density” value (125 μM) was 0.262 OD. In addition, under setting [1], the viability at 1 µM worked out at 97.8%, the viability at 2 µM is 102%, the viability at 4 µM was 107% and the viability at 8 µM turned out to be 140%. Further, under setting [1], the viability at 16 µM stood at 331%, the viability at 31.25 µM came to 546%, the viability at 62.5 µM worked out at 620% and the viability at 125 µM amounted to 482%.

Values taken from patent publication US20090286839A1, “PHYTONUTRIENT COMPOSITIONS FROM MUSHROOMS OR FILAMENTOUS FUNGI AND METHODS OF USE” (priority 2006, published 2009).
